Data on one compound can be found in patent US8883841B2, “Oncogenic ras-specific cytotoxic compound and methods of use thereof” (The Board of Regents of the University of Texas System, priority 2005, dated 2014).

Type in all cases: cell-based, human
Test [1] has as its system TNFα-induced NFκB activation. The experiment in a line: NFκB reporter plasmid (pNFκB-Luc) luciferase assay in T29Kt1 cells. Conditions: 10 μM, TNFα 1 ng/ml, 8 h. As to the method:
FIGS. 11A-11C Suppression of TNFα-induced NFκB activation. NKκB reporter plasmid assay. T29K cells were transfected with pNFκB-Luc and pCMV-lacZ. 12 h later, the cells were treated with TNFα (1 ng/ml) with or without (FIG. 11A) Oncrasin-1 (10 μM) or (FIG. 11B) Sulindac (10 μm). The luciferase activity was determined at 8 h after the treatment and normalized with beta-gal activity. (FIG. 11C) H460 and T29K cells were treated with DMSO or different concentrations of Oncrasin-1 as indicated for 12 h, with or without TNFα (1 ng/ml). The NFκB activity was analyzed by EMSA.
Suppression of NFκB. In a separated study, the effect of Oncrasin compounds on NF-κB activity was assessed. Nuclear factor-κB (NF-κB)/Rel represents a group of structurally related and evolutionarily conserved transcriptional factors that play critical roles in chronic and acute inflammatory diseases, autoimmune diseases and various type of cancers (Karin and Neriah, 2000; Karin and Karin, 2006; Barnes et al., 1997). In unstimulated cells, most NF-κB/Rel dimers are bound to IκBs and retained in the cytoplasm. Upon a various stimulations, IκBs are phosphorylated and rapidly degraded, releasing NF-κB, which then enters the nucleus and executes transcriptional functions. […] The luciferase activity was determined and normalized for transfection with beta-galactosidase activity. […]

The test system of test [2] is H460 cells transfected with Raf-1 constructs. Description: SRB cell viability of H460 cells stably transfected with Raf-1 plasmids. The settings on record: vs parental H460. As to the method:
(§1) FIGS. 10A-10D Effect of Oncrasin-1 on Raf-1 expression. (FIG. 10A) H460 cells were treated with various concentrations of Oncrasin-1 and harvested 24 h later for Western blot analysis. (FIG. 10B) Reverse transcriptase-based polymerase chain reaction (RT-PCR) assay. H460 cells treated with 1 μM Oncrasin-1 for various times or at various concentrations for 24 h, as indicated. (+, −, positive and negative controls). […] (FIG. 10D) Dose effects of Oncrasin-1 on stable cell lines transfected with Raf-1 plasmids. Parental H460 cells and H460 cells transfected with wild-type Raf-1 (Raf-1), constitutive Raf-1 (Raf-1C), or dominant-negative Raf-1 Raf-1/DN) were treated with various concentrations of Oncrasin-1, and cell viability was determined by SRB assay.
(§2) Suppression of Raf-1 expression by Oncrasin-1. […] To elucidate the roles of Raf-1 in Oncrasin-induced apoptosis, the inventors evaluated the expression of Raf-1 in H460 cells after treatment with different concentrations of Oncrasin-1. […] Because Raf-1 executes anti-apoptosis function via a variety of pathways. […] However, the resistance to Oncrasin-1 was more prominent in the constitutively active Raf-1-transfected cells than in cells with the wild-type Raf-1 (FIG. 10C and FIG. 10D).

The test system of another test is Raf-1 mRNA. Description: RT-PCR analysis of Raf-1 mRNA in H460 cells. As to the method: as §1, §2
The test system of another test is SC35. The experiment in a line: Antibody staining, subcellular localization of SC35 (spliceosome). From the text:
Effects on RNA spliceosome. To investigate the nature of this PKCiota aggregates in the nucleus, the effect of Oncrasin-1 on SC35, a protein required for RNA splicing and assembly of spliceosome (Fu et al., 1992; Vellard et al., 1992), and on Rad51, a homologous DNA recombinase that involves in DNA repair (Benson et al., 1994; Baumann et al., 1996) were studied. […] and DNA repairing are the two important functions executed in the nucleus. In untreated or DMSO-treated cells, SC35 was localized in nucleus as speckles, either diffusely distributed or concentrated as granule clusters (Mistele et al., 1997), whereas Rad51 was more uniformly distributed inside the nucleus. […] This aggregation of SC35 was not observed in Oncrasin resistant T29 cells upon the treatment with Oncrasin-1. […] The effects of Oncrasin on another spliceosome protein, alternative splicing factor/splicing factor 2 (ASF/SF2), was studied (Krainer et al., 1991). […] In the resistant T29 cells, however, such an aggregation is not observed (FIG. 8C).

In another test the test system is Raf-1. The experiment in a line: Western blot analysis of Raf-1 expression. The settings on record: listed as Oncrasin-1. As to the method: Ras Signaling Pathway and Molecular Mechanisms of Oncrasin-induced apoptosis. To investigate molecular mechanisms of apoptosis induction by Oncrasin compounds, levels several proteins that are involved in apoptosis and/or involved in Ras signaling pathways were determined, including Bax, Bik, Bc12, Bcl-XL, Raf-1, B-Raf, Akt, Mst1 and atypical protein kinase C (aPKC) zeta and PKCiota. To study which molecules are affected by Oncrasin treatment, T29, T29Kt1 and H460 cells were treated with Oncrasin-1 at an optimal concentration, around IC60 to IC80 for T29Kt1 and H460 cells. Cell lysates were collected 12 h after the treatment and subjected to Western blot analysis.
as §2

Structures are written as SMILES. “Also recorded” adds a separate entry of the source.

With `O=Cc1cn(Cc2ccc(Cl)cc2)c2ccccc12` [Oncrasin K001, 1H-Indole-3-carboxaldehyde, 1-[(4-chlorophenyl)methyl]-(9CI)], the “suppression of TNFα-induced NFκB activation (luciferase)” value in test [1] is reported as “more active than Sulindac”. Moreover, in test [2], the “susceptibility of H460 cells transfected with dominant-negative Raf-1” value is “more sensitive” and the “susceptibility of H460 cells transfected with wild-type or constitutively active Raf-1” value is recorded as “less susceptible than parental H460 cells”. In addition, in the test with Raf-1 mRNA, the “Raf-1 mRNA level” value is “decreased in a dose- and time-dependent fashion”. Besides, the “SC35 localization, T29Kt1 cells” value with SC35 is “aggregation of SC35 into several large foci”. The “SC35 aggregation, T29 cells” value with SC35 (Oncrasin resistant cells) is “not observed”. Further, the “Raf-1 level in H460 cells” value in the test on Raf-1 is “dramatically reduces raf-1; also recorded: down regulation; also recorded: dramatically reduced Raf-1 production; also recorded: dramatic reduction in Raf-1”.
